The test has as its system last instar larvae of common house mosquitos (Culexpipienspallens). Nature of the test: Larval mortality test on common house mosquitos in treated water (Test Example 5). The format is in vivo. As to conditions: Culicidae, 192 h; active ingredient 3.5 ppm in ion-exchanged water; 20 last instar larvae; observed after 8 days. The procedure:
Each of the formulations of Compounds (4), (5), (11) and (12) of the present invention obtained in Formulation Example 15 was diluted with water, so as to have a concentration of active ingredient of 500 ppm, to prepare a test drug solution.
0.7 ml of the test drug solution was added to 100 ml of ion-exchanged water (a concentration of active ingredient of 3.5 ppm).
As to `O=C(/C=C/CCCCCCc1ccccc1)NCC1CCOC1` (stereo not shown) [Compound (4), (E)-N-(tetrahydrofuran-3-ylmethyl)-9-phenyl-2-noneneamide], the mortality at 3.5 ppm is ≥ 95%.
The result for `O=C(/C=C/CCCCCCCc1ccccc1)NCC1CCOC1` (stereo not shown) [Compound (5), (E)-N-(tetrahydrofuran-3-ylmethyl)-10-phenyl-2-deceneamide] reads ≥ 95%; that for `O=C(/C=C/CCCCCCc1ccccc1)NCC1CCOCC1` [Compound (11), (E)-N-(tetrahydropyran-4-ylmethyl)-9-phenyl-2-noneneamide], ≥ 95%.
`C/C(=C\C(=O)NCC1CCOCC1)CCCc1ccccc1` [Compound (12), (E)-N-(tetrahydropyran-4-ylmethyl)-3-methyl-6-phenyl-2-hexeneamide]: the mortality at 3.5 ppm is ≥ 95%.

The term mortality denotes the share of the test organisms that died.

The record behind these values is patent publication US20150005348A1, “AMIDE COMPOUND AND USE THEREOF FOR PEST CONTROL” (SUMITOMO CHEMICAL COMPANY, LIMITED, priority 2012, published 2015).
